Experimental data reported in the supplement of paper PMC10307832.

How the values were obtained:
Assay in all cases: relative viability (nuclei count vs DMSO), 5 days (fraction); higher = more cells survive
[1] = compound: C=CC(=O)N1CCC[C@@H](n2nc(-c3ccc(Oc4ccccc4)cc3)c3c(N)ncnc32)C1 [Ibrutinib] + CC(C)C[C@H](NC(=O)[C@H](Cc1ccccc1)NC(=O)c1cnccn1)B(O)O [Bortezomib] (partner 0.002 µM)
Method in brief: (§1)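 Five library-drug doses in √10 steps were combined with a fixed anchor-drug dose, or a single drug was given alone, by pin tool to lung cancer cell lines in 1536-well plates the day after seeding. Nuclei were stained and counted after 5 days. Relative viability is the nuclei count in treated wells over that in vehicle wells, taken as the median of duplicate plates.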

[2] = compound: C=CC(=O)Nc1cc(-n2c(=O)ccc3cnc4ccc(-c5ccc(NS(C)(=O)=O)cc5)cc4c32)ccc1C [BMX-IN-1] + COc1cc2c(Oc3ccc(NC(=O)C4(C(=O)Nc5ccc(F)cc5)CC4)cc3F)ccnc2cc1OCCCN1CCOCC1 [Foretinib] (partner 0.25 µM)
Method in brief: as §1

[3] = compound: C=CC(=O)N1CCC[C@@H](n2nc(-c3ccc(Oc4ccccc4)cc3)c3c(N)ncnc32)C1 [Ibrutinib] + COc1cc2c(Oc3ccc(NC(=O)C4(C(=O)Nc5ccc(F)cc5)CC4)cc3F)ccnc2cc1OCCCN1CCOCC1 [Foretinib] (partner 0.25 µM)
Method in brief: as §1

[4] = compound: C=CC(=O)N1CCC[C@@H](n2nc(-c3ccc(Oc4ccccc4)cc3)c3c(N)ncnc32)C1 [Ibrutinib] + C[C@]1(O)C[C@@H](c2nc(-c3ccc4ccc(-c5ccccc5)nc4c3)c3c(N)nccn32)C1 [Linsitinib] (partner 1 µM)
Method in brief: as §1

| Cell Line | relative viability ([1]; first compound 0.005 µM) | relative viability ([1]; first compound 0.01581 µM) | relative viability ([1]; first compound 0.05 µM) | relative viability ([1]; first compound 0.1581 µM) | relative viability ([1]; first compound 0.5 µM) | relative viability ([2]; first compound 0.02 µM) | relative viability ([2]; first compound 0.2 µM) | relative viability ([2]; first compound 0.6325 µM) | relative viability ([2]; first compound 2 µM) | relative viability ([3]; first compound 0.005 µM) | relative viability ([3]; first compound 0.01581 µM) | relative viability ([3]; first compound 0.05 µM) | relative viability ([3]; first compound 0.1581 µM) | relative viability ([3]; first compound 0.5 µM) | relative viability ([4]; first compound 0.005 µM) | relative viability ([4]; first compound 0.01581 µM) | relative viability ([4]; first compound 0.05 µM) | relative viability ([4]; first compound 0.1581 µM) | relative viability ([4]; first compound 0.5 µM) |
| --- | --- | --- | --- | --- | --- | --- | --- | --- | --- | --- | --- | --- | --- | --- | --- | --- | --- | --- | --- |
| NCI-H23 | 0.839 | 1.02 | 0.938 | 1.07 | 1.13 | 1.18 | 0.965 | 0.938 | 0.999 | 0.988 | 0.884 | 0.939 | 0.914 | 0.641 | 0.396 | 0.508 | 0.545 | 0.568 | 0.518 |
| NCI-H322M | 1.09 | 1.22 | 1.25 | 1.24 | 1.07 | 1.13 | 0.958 | 0.967 | 0.941 | 0.872 | 0.864 | 0.899 | 0.989 | 0.642 | 0.782 | 0.813 | 0.784 | 0.82 | 0.516 |
| NCI-H441 | 0.518 | 0.498 | 0.45 | 0.575 | 0.479 | 1.26 | 1.05 | 1.14 | 0.876 | 0.898 | 1.11 | 1.1 | 1.08 | 0.895 | 0.64 | 0.615 | 0.585 | 0.518 | 0.495 |
| NCI-H460 | 1.27 | 1.02 | 1.19 | 1.19 | 1.27 | 1.22 | 1.09 | 1.11 | 1.06 | 1.06 | 0.909 |  | 1.01 | 0.992 | 0.643 | 0.652 | 0.861 | 0.76 | 0.772 |
| NCI-H520 | 0.567 | 0.45 | 0.553 | 0.662 | 0.338 | 0.825 | 0.879 | 0.864 | 0.825 | 0.672 |  | 0.734 | 0.945 | 0.531 | 0.928 | 0.76 | 0.971 | 1.03 | 0.883 |
| NCI-H596 | 1.21 | 0.457 |  | 0.834 | 0.92 | 0.953 | 1.25 | 0.872 | 0.714 |  | 0.808 | 0.803 | 0.793 | 0.567 | 1.13 | 0.946 | 0.99 | 0.996 | 0.841 |
| NCI-H647 | 0.823 | 0.86 | 0.991 | 1.04 | 1.02 | 1.32 | 1.58 | 1.14 | 1.21 |  | 1.13 | 1.23 | 1.25 | 1.17 | 1.05 | 0.995 | 1.15 | 1.14 | 1.1 |
| NCI-H650 |  | 0.706 |  | 1.12 | 0.932 | 1.06 | 1.01 | 1.12 | 1.1 | 1.07 | 0.94 | 1.09 | 1.25 | 1.17 |  | 0.688 |  | 1.19 | 0.889 |
| NCI-H661 | 0.833 | 0.748 | 0.652 | 0.838 | 0.611 | 1.16 | 0.961 | 1.11 | 1.02 | 1.06 | 0.839 | 0.842 | 0.984 | 0.616 | 0.477 | 0.48 | 0.543 | 0.546 | 0.355 |
| NCI-H727 | 0.628 | 0.796 | 0.981 | 0.623 | 0.785 | 1.37 | 0.933 | 0.893 | 1.01 | 0.911 | 0.785 | 0.914 |  | 0.695 | 0.285 | 0.288 | 0.319 | 0.203 | 0.31 |
| NCI-H838 | 0.781 | 0.729 | 0.687 | 0.741 | 0.673 | 1.3 | 1.25 | 1.24 | 0.982 | 0.929 | 0.985 | 1.07 | 1.01 | 1.02 | 1.02 | 1 | 0.983 | 1.08 | 1.01 |
| NCI-H1299 | 1.02 | 1 | 0.995 | 1.02 | 1.04 | 1.12 | 1.06 | 1.16 | 1.06 | 0.557 | 1.07 | 1.14 | 1.09 | 1.11 | 0.497 | 0.993 | 0.961 | 0.966 | 1.03 |
| NCI-H1355 |  | 1.14 | 1.18 | 1.2 | 1.16 | 1.1 | 1.15 | 0.921 | 0.977 | 0.863 | 0.88 | 0.848 | 0.981 | 0.793 |  | 0.666 | 0.713 | 0.885 | 0.67 |
| NCI-H1437 | 0.647 | 0.476 | 0.449 | 0.482 | 0.603 | 1.34 | 1.27 | 1.31 | 1.32 | 1.33 | 1.19 | 1.26 | 1.28 | 1.27 | 1.01 | 0.926 | 0.989 | 1.09 | 0.993 |
| NCI-H1563 | 0.778 | 0.771 | 0.807 | 0.742 | 0.752 | 0.922 | 0.956 | 0.914 | 0.906 | 0.985 | 0.92 | 0.935 | 0.998 | 0.88 | 1.37 | 1.08 | 1.33 | 1.16 | 1.06 |
| NCI-H1651 | 0.953 | 0.971 |  | 0.822 | 0.967 | 1 | 0.907 | 0.909 | 0.773 | 0.928 | 0.931 | 0.896 | 0.882 | 0.615 | 0.99 | 0.765 | 0.901 | 0.991 | 0.927 |
| NCI-H1666 | 0.768 | 0.79 | 0.802 | 0.695 | 0.977 | 0.959 | 1.04 | 1.03 | 0.935 | 0.981 | 0.919 | 0.919 | 0.988 | 0.74 | 0.86 | 0.628 | 0.615 | 0.955 | 0.422 |
